Results as given in patent US20140335115A1 (priority 2013, published 2014).

Columns and labels:
Assay type in all cases: cell-based
monkeypoxvirus = tested on: monkeypoxvirus
cowpoxvirus = tested on: cowpoxvirus
vaccinia virus = tested on: vaccinia virus

Measured: prevention of spread of virus to Jurkat T cells

O=C(NN1C(=O)[C@@H]2[C@@H]3C=C[C@@H]([C@H]4C[C@@H]34)[C@@H]2C1=O)c1ccc(C(F)(F)F)cc1 [ST246]
~90%: all assays above
